Data published in US8268961B2, “Antibacterial peptides and analogues thereof” (Universita Degli Studi di Siena, priority 2004, dated 2012).
Entries after “also recorded” stand apart in the source; their conditions may differ. Positions of bridges follow the written chain, without caps; N, C: chain ends. Chains are numbered I, II in the order given. No end group written: not given here.

How the values were obtained:
[1] = LPS binding by Plasmon Surface Resonance (Biacore); conditions: M6 immobilised on BIACORE sensorchip
Experimental: FIG. 11. Binding analysis between MAP M6 peptide and LPS in BIACORE. […] On the y-axis are shown the Units of Response derived from the binding between LPS and M6 as a function of time expressed in seconds (on the x-axis)
The ability of MAP peptides to perforate the bacterial membrane was evaluated measuring the activity of cytoplasmatic beta-galactosidase (24) in surpernatants of E. coli strain ML-35 incubated with the peptide and using p-nitrophenyl-β-D-galactopyranoside (pNPG) as a substrate. pNPG is digested by beta-galactosidase, therefore releasing p-nitro-phenolate detectable by spectrophotometric reading at 420 nm (FIG. 10). […] The activity of dendrimeric peptides against the inner membrane was evaluated at concentrations of 16, 32 and 64 μg/ml. All dendrimeric peptides permeabilized bacterial inner membrane at 16 μg/ml (FIG. 9). Permeabilization occurred after a lag of less than 1 minute, and the rate of permeabilization depended on peptide concentration (not shown). Moreover, the ability of the M6 MAP peptide to bind the bacterial lipopolysaccharide (LPS) was assayed by Plasmon Surface Resonance in a Biacore 1000 instrument (FIG. 11) using a protocol perfected by the authors (26).

[2] = system: E. coli plasmid vector pCEP4 DNA; assay: DNA binding assay (gel retardation)
Experimental: In an attempt to clarify the molecular mechanism of action, the authors examined the binding properties on DNA exerted by M6 dendrimeric peptide and magainin 2, an antimicrobial peptide which has a pore-forming activity on the cell membrane. The DNA binding abilities of M6 and magainin 2 were examined by analyzing the electrophoretic mobility of DNA bands at the various weight ratios of peptides to DNA on a 1% (w/v) agarose gel.
Gel-retardation experiments were performed by mixing 200 ng of the E. coli plasmid vector pCEP4 (Invitrogen) with increasing amounts of M6 peptide in 20 μl of binding buffer (5% glycerol, 10 mM Tris-HCl (pH 8.0), 1 mM EDTA, 1 mM DTT, 20 mM KCl and 50 μg/ml BSA). The reaction mixtures were incubated at room temperature for 1 h. Subsequently, 4 μl of native loading buffer was added (40% saccarose, 0.25% bromophenol blue) and an aliquot of 12 μl was applied to a 1% agarose gel electrophoresis in 1 mM Tris borate-EDTA buffer.

[3] = system: Serratia marcescens W99FI0111; assay: MIC, standard microdilution assay; format: cell-based; conditions: Serratia marcescens W99FI0111, FQR AGR ESCR (ESBL/SHV-5)
Description: (§1) MIC is defined as the lowest concentration, in an antibiotic dilution range, that inhibits visible bacterial growth. The importance of MIC sensitivity test is based on the principle that in vitro sensitivity provides a predictive indication of the in vivo efficacy of the antibiotic therapy. Values are expressed as molar concentration and compared to MIC values obtained with commercially available antibiotics such as amikacin, ceftriaxone and levofloxacin (Table 3).
(§2) Reference strains (Escherichia coli ATCC 25922, Pseudomonas aeruginosa ATCC 27853, Staphylococus aureus ATCC 25923 and Chryseobacterium meningosepticum CCUG 4310) and several recent clinical isolates (including multidrug-resistant ones) of various species (Table 2) were used for conventional susceptibility testing experiments. Minimum Inhibitory Concentration (MIC) was determined by a standard microdilution assay as recommended by the National Commitee for Clinical Laboratory Standards (NCCLS) using cation-supplemented Mueller-Hinton (MH) broth (Oxoid Ltd. Basingstoke, UK) and a bacterial inoculum of 5×10^4 CFU per well, in a final volume of 100 μl. Results were recorded by visual inspection after 24 h of incubation at 37° C.

[4] = system: Stenotrophomonas maltophilia PT4/99; assay: MIC, standard microdilution assay; format: cell-based; conditions: Stenotrophomonas maltophilia PT4/99, wild-type profile
Description: as §1, §2

[5] = system: Providencia stuartii W03FI0001; assay: MIC, standard microdilution assay; format: cell-based; conditions: Providencia stuartii W03FI0001, AGR ESCR (ESBL/PER-1)
Description: as §1, §2

[6] = system: Chryseobacterium meningosepticum CCUG4310; assay: MIC, standard microdilution assay; format: cell-based; conditions: Chryseobacterium meningosepticum CCUG4310, reference strain
Description: as §1, §2

[7] = system: Morganella morganii W03VA1342; assay: MIC, standard microdilution assay; format: cell-based; conditions: Morganella morganii W03VA1342, FQR ESCR (ESBL/CTX-M-1)
Description: as §1, §2

[8] = system: Proteus mirabilis W99FI0089; assay: MIC, standard microdilution assay; format: cell-based; conditions: Proteus mirabilis W99FI0089, FQR
Description: as §1, §2

[9] = Stability to plasmatic protease (HPLC); format: in vitro ADME, human
How it was run: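 Linear and MAP peptides (10 mM in H2O) incubated with human plasma and serum at 37° C. for 2 and 24 hours. Reaction stopped with methanol; supernatant analysed by reverse-phase C18 HPLC (20-95% TFA/methanol gradient, 30 min) for undigested peptide.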

I: QKKIRVRLSAKKA-OH / II: QKKIRVRLSAK / III: QKKIRVRLSA / IV: QKKIRVRLSA (amide I:11-IV:C, I:12-II:C, II:11-III:C) [M6, QKKIRVRLSA]
Binding to bacterial lipopolysaccharide (LPS), sensorgram [1]: effectively binds; also recorded: rapid binding
Weight ratio of peptide to DNA at which migration of DNA is inhibited ([2]; 200 ng pCEP4, 1% agarose gel, 1 h room temperature): > 0.2
DNA binding tightness relative to magainin 2 ([2]; from gel retardation weight ratios): over 25 times
MIC (Molarity) [3]: >49 µM
MIC (Molarity) [4]: >49 µM
MIC (Molarity) [5]: >49 µM
MIC (Molarity) [6]: >49 µM
MIC (Molarity) [7]: >49 µM
MIC (Molarity) [8]: >49 µM
Resistance to plasmatic protease: Plasma 2 h [9]: +
Resistance to plasmatic protease: Plasma 24 h [9]: +
